# Assays:
# [1] = system: Plasmid DNA; experiment: Agarose gel electrophoresis of plasmid DNA after UVA irradiation (PtEuL); format: biochemical; details: 20 μM, UVA light dose 50 J m^−2
# Source text: The DNA gel images were obtained using GelRed Nucleic Acid Stain (BIOTIUM).
# (§1) Direct binding of PtEuL with DNA in dark were studied by circular dichroism (CD). […] The interaction of photo-activated PtEuL with DNA was examined by agarose gel electrophoresis (FIG. 29B). After UVA irradiation with PtEuL, conversion of the supercoiled conformer of the plasmid DNA to its open-circular conformer, which indicates DNA nicking (single strand break) and linear conformer, which indicates double strand break, is clearly seen.
# [2] = system: HeLa; experiment: Dark cytotoxicity of Eu(III) complexes on HeLa cells; format: cell-based
# [3] = system: HeLa cells; experiment: Two-photon confocal microscopy of HeLa cells with PtEuL / EuL; format: cell-based
# Protocol: Near infrared (NIR) excitation has increasingly been used in live cell imaging and photodynamic or photoactivated chemo-therapy because NIR photon (λ=650-900 nm) can penetrate deeper into tissues with pinpoint accuracy and little collateral photodamage. The two-photon photophysical properties of some antenna ligands of lanthanide complexes have been studied previously. The two-photon induced cytotoxicity of the EuL and PtEuL complexes towards HeLa cells after incubation at different dose concentrations (PtEuL: 0, 1, 2, 5, 10 μM; EuL: 0, 10, 20, 50, 100 μM) for 24 hours was studied using two-photon (λex=730 nm) confocal microscopy (FIGS. 30A-30C and FIGS. 33A and 33B). […] This is probably due to the lower cellular uptake rate of EuL because we no Eu emission was observed from the HeLa cells even after incubation in 100 μM of EuL, ceteris paribus.
# [4] = system: HeLa cells; experiment: Dark and photo cytotoxicity of RuEuL against HeLa cells; format: cell-based, human
# Protocol: To determine the potential of RuEuL as a photo-controlled prodrug cell cytotoxicity studies were performed on human cervical cancer (HeLa) cells, and EuL as control (FIGS. 25A and 25B). Cells were incubated 6 hours in the dark before irradiation (488 nm, 1 J); dark controls were run in parallel.
# [5] = system: Plasmid DNA; experiment: Agarose gel electrophoresis of plasmid DNA with RuEuL / EuL; format: biochemical; details: 20 μM
# Protocol: Furthermore, the interaction of photo-activated RuEuL with DNA was examined by agarose gel electrophoresis (FIG. 24). Plasmid DNA (22.5 μg/mL in Tris/EDTA (TE) buffer) was incubated with the compounds (20 μM), irradiated by 488 nm light (dose 50 J m^−2) or not (control) and then subjected to 1% agarose gel electrophoresis. The separated DNA was stained with GelRed Nucleic Acid Stain (BIOTIUM) and imaged using Tanon 1600 Gel Imaging System (Tanon Science & Technology Co., Ltd).
# [6] = system: A549; experiment: Dark cytotoxicity of Eu(III) complexes on A549 cells; format: cell-based
# [7] = system: Plasmid DNA; experiment: Circular dichroism of plasmid DNA with PtEuL in dark; format: binding; details: 50 μM, 37° C., 12 h
# Source text: as §1
# [8] = Photo-induced dissociation of the cisplatin unit in tris buffer monitored by emission; format: physicochemical
# Protocol: One of the key issues is the photodissociation level of the Pt moiety from the compounds described herein. The triplet states of the chromophores before and after photo-release the drug or upon binding with αvβ3 isoform were measured. Based on the synthetic protocols described herein, La (lanthanum) and Gd (gadolinium) analogs can be synthesized to measure the triplet states of the chromophores as well. The measurements of the triplet states of these chromophores phosphorescence and their phosphorescence lifetime was undertaken at low temperature (77K). The photodissociation kinetics of PtEuL were investigated by monitoring the emission spectrum with different irradiation times of UVA/NIR (light dosage=4 J cm^−2). The plot of responsive and initial emission intensity at 615 nm (^5D0→^7F2) vs time will be fitted in the exponential growth and decay equation to obtain the pseudo-first order rate constant.
# The linear light induced dissociation of PtGdL in tris buffer (20 mM Tris base, 50 mM NaCl, pH 7.4) was monitored by determination of the emission intensity of solution of PtGdL in tris buffer with different light dosage of 365 nm UV light. In general, 3 mL of the solution of PtGdL (3 μM in tris buffer) in a 3.5 mL quartz cuvette was irradiated with a 365 nm UV lamp (5 mW) with stirring. The emission spectra of the solution were recorded at different time points (0, 1, 3, 5, 7, 10, 15, 20, 30, 45, 60, 75 and 90 min).
# (Ln=Eu or Gd). The solution-state electronic adsorption and emission spectra of all the complexes and the ligand were recorded at 298 K (FIGS. 28A-28D). The EuL complex is the product of PtEuL after photo-dissociation and was used to monitor the photo-dissociation of [Pt—(NH3)2Cl]^+ from PtEuL. […] The photo-dissociation of PtEuL (3 μM in Tris-buffer, pH=7.4, 50 mM NaCl) was monitored by the variation of the Eu emission (λem=615 nm, ^5D0→^7F2) with the irradiation time. […] The pseudo-first order rate constant k was determined to be 0.53 min^−1 under these experimental conditions (FIG. 28D).
# [9] = system: HeLa cells; experiment: Confocal microscopy of light-induced cytotoxicity of RuEuL; format: cell-based, human; details: 50 μM RuEuL or 10 μM PtEuL, 6 hours, 7 mW
# Source text: The light-induced cytotoxicity of RuEuL towards HeLa cells was also investigated by confocal microscopy (FIG. 26B) with the PtEuL complex tested under identical conditions for comparison. […] In cell culture studies, red Eu(III) emission from RuEuL was observed after 15-min irradiation. (FIG. 26A) The emission intensity increased with longer irradiation time because more excitation energy induced the dissociation of more Ru(II) moieties from the parent molecules, and the resulting EuL units generated stronger light emission. […] PtEuL is photo-activated upon ultraviolet A irradiation (λ=365 nm). However, UVA irradiation could cause severe adverse effects on human cells.
# [10] = mean ± SD of three independent experiments
SMILES,DNA photocleavage activity [1],toxicity towards HeLa ([2]; identical conditions),"red emission from treated cells ([3]; identical conditions, up to 100 μM)",toxicity towards HeLa cells ([4]; control),interaction with DNA [5],toxicity towards A549 ([6]; identical conditions),"IC50 [2, 10] [µM]","concentration at which red emission was observed in the cell ([3]; 24 hours incubation, 30 min intermittent two-photon excitation 730 nm) [µM]",direct binding with DNA in dark (CD) [7],"pseudo-first order rate constant k (I/I0 @ 615 nm vs. time) ([8]; 3 μM in Tris-buffer pH 7.4, 50 mM NaCl, UVA 365 nm) [min⁻¹]","pseudo-first order rate constant k for the dissociation of the cisplatin unit ([8]; tris buffer pH 7.4, UV 365 nm, 5 mW) [min⁻¹]",cell damage and red emission on 488 nm laser irradiation [9],"IC50 ([4]; HeLa, 6 hours in the dark then irradiation (488 nm, 1 J), read-out: light IC50) [µM]","IC50 [6, 10] [µM]"
O.O=C([O-])CN1CCN(CC(=O)[O-])CCN(Cc2cc(C#Cc3ccc(NC(=O)c4ccncc4)cc3)ccn2)CCN(CC(=O)[O-])CC1.[Eu+3] [EuL],not at all,no toxicity,no red emission was detected,almost no toxicity,does not interact with DNA,no toxicity,,,,,,,,
O.O=[N+]([O-])[O-].[Eu+3].[NH3+][Pt-2]([NH3+])([Cl])[n+]1ccc(C(=O)Nc2ccc(C#Cc3ccnc(CN4CCN(CC(=O)[O-])CCN(CC(=O)[O-])CCN(CC(=O)[O-])CC4)c3)cc2)cc1 [PtEuL],strong DNA photocleavage activity,,,,,,22.5 ± 0.5,> 2,can directly bind to DNA and unwind its helix,0.53,0.053,no red emission or cell death,22.9,49.5 ± 0.1
